Key:
cardiac lymphatics = assay: post-mortem cardiac lymphangiography in normal dog hearts (first study); type: in vivo, mongrel dogs; conditions: normal myocardium, 6 h after i.v., Hyaluronidase 500 I.U./kg, calcium dobesilate 50-100 mg/kg
Experimental: I. In a first study the effect of calcium dobesilate was compared to Hyaluronidase on the visualization of cardiac lymphatics in normal dog hearts (not infarcted). 18 healthy mongrel dogs of either gender were divided into 3 groups each of 6 animals. […] The dogs in the second group received an intravenous injection of Hyaluronidase (500 I.U./kg) and those of the third group received an i.v. injection of calcium dobesilate (50-100 mg/kg). Post-mortem cardiac lymphangiography was performed after killing the animals and extracting the hearts 6 hours after the administration of either product. The results of the 2 groups were compared to that of the controls. The technique of cardiac lymphangiography used was that described by Szlavy L., Adams D., Hollenberg N. K. and Abrams H., published in the American Heart Journal, Vol. 100, Nr. 3, pp 323-331, Sept. 1980 (8). The technique consisted in injecting a contrast agent (30 g barium sulphate+2-5 ml of Iodamid 420) into the superficial lymphatic vessels of the heart using a Becton-Dickinson lymphangiography set. The contrast agent was injected under gentle manual pressure until the lymphatic vessels in the left ventricle were filled (multiple injections starting from the apex to the base of the heart). The heart was then X-rayed with 5-fold magnification using a 0,1 mm focal spot X-raytube and with exposure factors of 50 KV, 0,01 second and 30 mA. With this technique it was possible to visualize the 40-80 microns lymphatic vessels. A grid was applied on the lymphangiograms which consisted of lines drawn at right angles, 1 cm apart. Each 5×5 cm^2 served as a single unit as it corresponded to 1 cm^2 of the left ventricular myocardium (5-fold magnification was used for filming). A point was counted whenever a crossing coincided with a visualized lymph vessel in the lymphangiogram. In this way a quantitative index was obtained based on the number of lymph vessels/cm^2 or to the percent of the left ventricular surface area.

[1] = test system: dogs with coronary occlusion; conditions: cited from earlier work
[2] = test system: patients with acute anterior myocardial infarction; conditions: intravenous; cited from earlier work

For Hyaluronidase, the “No of lymphatics per cm^2” value (cardiac lymphatics; controls 1.64 ± 0.11, P <0.001 in relation to control) is given as 3.45 ± 0.18 per cm^2, the “Equivalence to ventricular surface” value (cardiac lymphatics; controls 6.6%, P <0.001) is given as 13.8% and the ST segment elevation [1] is given as “reduction”. For the same substance, the “infarct size (histological planimetric measurements)” value [1] was “decrease”, the “myocardial CK (creatinine-Kinase)” value [1] was “diminution” and the “number of lymphatic vessels in the area of infarction” value [1] was “increase”. For the same substance, the “EKG signs of necrosis” value [2] was “attenuate”.

Reference: patent publication US4513007A, “Method for treating heart disease” (priority 1983, dated 1985)
